Assay results as given in article PMC6631223, “Chain-Branched Polyhydroxylated Octahydro-1H-Indoles as Potential Leads against Lysosomal Storage Diseases” (Pharmaceuticals, 2019).

Legend:
Type in all cases: biochemical
β-Glucosidase (almond) = assay: Glycosidase inhibition: β-glucosidase (almond)
Source text: (§1) The enzymes α-glucosidase (from yeast, rice), β-glucosidase (from almonds, bovine liver), α-galactosidase (from coffee beans), β-galactosidase (from bovine liver), α-mannosidase (from jack beans), β-mannosidase (from snails), α-L-fucosidase (from bovine kidney), α-L-rhamnosidase (from Penicillium decumbens), β-glucuronidases (from Escherichia coli), α,α-trehalase (from porcine kidney), amyloglucosidase (from Aspergillus niger), p-nitrophenyl glycosides, and various disaccharides were purchased from Sigma-Aldrich Co. Brush border membranes were prepared from the rat small intestine according to the method of Kessler et al., and were assayed at pH 6.8 for rat intestinal maltase using maltose. For rat intestinal glucosidases and porcine kidney trehalase activities, the reaction mixture (0.2 mL) contained 25 mM substrate and the appropriate amount of enzyme, and the incubations were performed for 10 min at 37 °C. The reaction was stopped by heating at 100 °C for 3 min. After centrifugation (600 g; 10 min), 0.035 mL of the resulting reaction mixture were added to 2.1 mL of the Glucose CII-test Wako (Wako Pure Chemical Ind., Osaka, Japan). The absorbance at 505 nm was measured to determine the amount of the released D-glucose. Other glycosidase activities were determined using an appropriate p-nitrophenyl glycoside as substrate at the optimum pH of each enzyme. The reaction mixture (0.2 mL) contained 2 mM of the substrate and the appropriate amount of enzyme. The reaction was stopped by adding 0.4 mL of 400 mM Na2CO3. The released p-nitrophenol was measured spectrometrically at 400 nm.

β-Glucronidase (E.coli) = molecular target: T1, β-Glucronidase (E.coli) (Escherichia coli, UniProt P05804); assay: Glycosidase inhibition: β-glucuronidase (E. coli)
T1 construct: purchased Sigma-Aldrich Co
T1 sequence (P05804 whole entry): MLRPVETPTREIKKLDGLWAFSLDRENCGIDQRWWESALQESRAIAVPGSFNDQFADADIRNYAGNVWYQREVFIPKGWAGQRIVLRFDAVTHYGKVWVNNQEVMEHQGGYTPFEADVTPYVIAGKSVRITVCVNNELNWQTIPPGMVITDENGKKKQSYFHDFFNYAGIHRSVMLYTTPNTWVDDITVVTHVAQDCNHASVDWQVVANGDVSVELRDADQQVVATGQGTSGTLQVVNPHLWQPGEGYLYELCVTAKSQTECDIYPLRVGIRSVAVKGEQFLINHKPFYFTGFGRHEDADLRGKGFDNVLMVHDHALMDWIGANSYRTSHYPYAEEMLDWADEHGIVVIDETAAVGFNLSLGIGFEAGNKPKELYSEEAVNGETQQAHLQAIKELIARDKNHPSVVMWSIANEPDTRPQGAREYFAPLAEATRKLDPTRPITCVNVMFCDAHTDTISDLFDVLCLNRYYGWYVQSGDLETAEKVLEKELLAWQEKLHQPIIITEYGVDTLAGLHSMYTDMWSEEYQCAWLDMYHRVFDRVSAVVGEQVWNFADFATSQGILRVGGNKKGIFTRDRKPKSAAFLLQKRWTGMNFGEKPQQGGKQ
Source text: as §1

Rat intestinal maltase = assay: Glycosidase inhibition: rat intestinal maltase; details: maltose, pH 6.8
Source text: as §1

[1] = molecular target: T2, Lactase (β-Galactosidase) (Rattus norvegicus, UniProt Q02401); assay: Glycosidase inhibition: lactase; details: lactase
T2 construct: Brush border membranes were prepared from the rat small intestine; from tissue; host or cells: rat small intestine brush border membranes (inferred)
T2 sequence (Q02401 868-1928): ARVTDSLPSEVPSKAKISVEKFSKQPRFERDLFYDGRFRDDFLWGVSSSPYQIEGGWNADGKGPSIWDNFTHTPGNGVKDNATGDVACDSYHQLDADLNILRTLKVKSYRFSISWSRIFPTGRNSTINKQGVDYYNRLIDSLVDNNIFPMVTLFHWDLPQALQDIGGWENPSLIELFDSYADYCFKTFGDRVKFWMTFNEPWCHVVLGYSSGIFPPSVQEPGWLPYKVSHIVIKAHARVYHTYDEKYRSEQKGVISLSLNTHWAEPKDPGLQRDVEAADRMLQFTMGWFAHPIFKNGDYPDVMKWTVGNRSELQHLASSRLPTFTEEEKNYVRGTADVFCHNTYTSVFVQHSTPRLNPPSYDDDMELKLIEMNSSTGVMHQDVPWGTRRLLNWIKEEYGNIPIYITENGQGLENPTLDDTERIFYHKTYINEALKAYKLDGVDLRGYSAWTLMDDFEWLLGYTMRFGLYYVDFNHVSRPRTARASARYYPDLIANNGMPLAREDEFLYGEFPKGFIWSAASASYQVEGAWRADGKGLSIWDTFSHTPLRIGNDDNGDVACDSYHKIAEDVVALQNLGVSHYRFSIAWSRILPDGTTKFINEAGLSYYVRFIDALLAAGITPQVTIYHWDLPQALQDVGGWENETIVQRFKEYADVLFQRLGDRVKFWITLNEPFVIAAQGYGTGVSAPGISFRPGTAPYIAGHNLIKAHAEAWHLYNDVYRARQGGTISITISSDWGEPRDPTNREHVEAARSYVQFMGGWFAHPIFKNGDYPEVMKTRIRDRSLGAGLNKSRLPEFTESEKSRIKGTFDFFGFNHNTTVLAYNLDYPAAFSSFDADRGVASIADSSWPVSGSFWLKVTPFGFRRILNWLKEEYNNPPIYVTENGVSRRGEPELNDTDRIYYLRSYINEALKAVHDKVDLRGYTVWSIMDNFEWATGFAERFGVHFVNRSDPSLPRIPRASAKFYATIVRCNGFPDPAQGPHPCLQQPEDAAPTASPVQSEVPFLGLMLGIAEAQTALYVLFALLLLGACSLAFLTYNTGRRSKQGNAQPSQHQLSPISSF
Source text: as §1

β-Mannosidase (snail) = assay: Glycosidase inhibition: β-mannosidase (snail)
Source text: as §1

[2] = molecular target: T3, α-Galactosidase (coffee beans) (Coffea arabica, UniProt Q42656); assay: Glycosidase inhibition: α-galactosidase (coffee beans); details: α-galactosidase, coffee beans
T3 construct: purchased Sigma-Aldrich Co
T3 sequence (Q42656 16-378): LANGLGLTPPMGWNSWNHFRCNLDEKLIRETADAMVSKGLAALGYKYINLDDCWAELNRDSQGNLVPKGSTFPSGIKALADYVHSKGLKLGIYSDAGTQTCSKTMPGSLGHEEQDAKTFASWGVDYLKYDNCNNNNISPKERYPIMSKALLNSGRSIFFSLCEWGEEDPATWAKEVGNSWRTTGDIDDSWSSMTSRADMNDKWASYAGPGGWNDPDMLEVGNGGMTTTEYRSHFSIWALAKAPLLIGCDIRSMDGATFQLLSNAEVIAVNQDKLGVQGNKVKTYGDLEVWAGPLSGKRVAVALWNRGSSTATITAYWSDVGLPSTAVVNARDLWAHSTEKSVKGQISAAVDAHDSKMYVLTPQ
Source text: as §1

α-Glucosidase (yeast) = molecular target: T4, α-Glucosidase (yeast) (Saccharomyces cerevisiae, UniProt P53341); assay: Glycosidase inhibition: α-glucosidase (yeast)
T4 construct: purchased Sigma-Aldrich Co
T4 sequence (P53341 whole entry): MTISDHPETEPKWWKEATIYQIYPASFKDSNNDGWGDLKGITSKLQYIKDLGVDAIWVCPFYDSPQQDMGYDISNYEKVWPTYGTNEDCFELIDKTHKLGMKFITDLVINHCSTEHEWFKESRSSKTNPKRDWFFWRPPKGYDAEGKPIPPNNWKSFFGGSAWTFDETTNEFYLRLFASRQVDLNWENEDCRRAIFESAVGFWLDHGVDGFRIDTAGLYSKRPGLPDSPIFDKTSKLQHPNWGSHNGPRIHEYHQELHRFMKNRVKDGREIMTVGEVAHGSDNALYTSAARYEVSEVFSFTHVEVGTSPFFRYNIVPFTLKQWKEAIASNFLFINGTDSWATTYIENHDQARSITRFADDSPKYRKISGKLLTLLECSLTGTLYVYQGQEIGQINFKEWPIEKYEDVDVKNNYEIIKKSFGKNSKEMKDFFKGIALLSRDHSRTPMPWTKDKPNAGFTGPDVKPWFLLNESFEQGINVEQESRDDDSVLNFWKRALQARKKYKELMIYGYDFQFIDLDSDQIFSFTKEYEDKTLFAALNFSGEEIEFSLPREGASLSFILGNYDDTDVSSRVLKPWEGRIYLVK
Source text: as §1

[3] = molecular target: T5, α-L-Fucosidase (bovine kidney) (Bos taurus, UniProt Q2KIM0); assay: Glycosidase inhibition: α-L-fucosidase (bovine kidney); details: α-L-fucosidase, bovine kidney
T5 construct: purchased Sigma-Aldrich Co; host or cells: bovine kidney
T5 sequence (Q2KIM0 23-468): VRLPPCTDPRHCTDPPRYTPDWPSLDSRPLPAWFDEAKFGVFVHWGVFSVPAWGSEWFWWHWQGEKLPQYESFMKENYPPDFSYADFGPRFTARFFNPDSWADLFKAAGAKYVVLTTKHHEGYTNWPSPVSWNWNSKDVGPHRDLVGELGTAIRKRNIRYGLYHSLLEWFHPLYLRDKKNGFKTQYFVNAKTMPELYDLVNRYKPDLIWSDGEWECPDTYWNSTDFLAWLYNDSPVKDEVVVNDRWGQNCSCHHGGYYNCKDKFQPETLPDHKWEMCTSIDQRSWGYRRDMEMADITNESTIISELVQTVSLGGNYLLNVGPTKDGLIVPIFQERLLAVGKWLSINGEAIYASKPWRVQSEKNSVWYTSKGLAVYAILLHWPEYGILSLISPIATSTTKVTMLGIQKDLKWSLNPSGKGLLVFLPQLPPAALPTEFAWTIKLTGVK
Source text: as §1

Amyloglucosidase = molecular target: T6, Amyloglucosidase (Aspergillus niger, UniProt P69328); assay: Glycosidase inhibition: amyloglucosidase (Aspergillus niger)
T6 construct: purchased Sigma-Aldrich Co
T6 sequence (P69328 25-640): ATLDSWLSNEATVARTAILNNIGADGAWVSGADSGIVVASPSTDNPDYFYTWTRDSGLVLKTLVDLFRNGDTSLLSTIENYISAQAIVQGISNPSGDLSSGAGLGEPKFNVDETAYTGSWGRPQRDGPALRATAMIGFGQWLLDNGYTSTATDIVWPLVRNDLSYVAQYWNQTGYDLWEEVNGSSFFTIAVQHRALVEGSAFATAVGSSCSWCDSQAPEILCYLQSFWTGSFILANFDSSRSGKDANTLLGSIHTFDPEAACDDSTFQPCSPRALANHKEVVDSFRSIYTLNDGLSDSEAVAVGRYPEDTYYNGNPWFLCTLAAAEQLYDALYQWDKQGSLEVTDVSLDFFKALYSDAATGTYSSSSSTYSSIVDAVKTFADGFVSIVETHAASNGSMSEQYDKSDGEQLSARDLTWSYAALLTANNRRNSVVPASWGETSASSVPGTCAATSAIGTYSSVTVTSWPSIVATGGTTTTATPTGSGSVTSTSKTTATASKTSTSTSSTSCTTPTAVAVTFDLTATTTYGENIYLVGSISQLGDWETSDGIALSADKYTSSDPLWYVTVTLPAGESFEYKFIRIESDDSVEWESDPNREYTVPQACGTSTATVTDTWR
Source text: as §1

α-Glucosidase (rice) = molecular target: T7, α-Glucosidase (rice) (Oryza sativa subsp. japonica, UniProt Q653V7); assay: Glycosidase inhibition: α-glucosidase (rice)
T7 construct: purchased Sigma-Aldrich Co
T7 sequence (Q653V7 34-885): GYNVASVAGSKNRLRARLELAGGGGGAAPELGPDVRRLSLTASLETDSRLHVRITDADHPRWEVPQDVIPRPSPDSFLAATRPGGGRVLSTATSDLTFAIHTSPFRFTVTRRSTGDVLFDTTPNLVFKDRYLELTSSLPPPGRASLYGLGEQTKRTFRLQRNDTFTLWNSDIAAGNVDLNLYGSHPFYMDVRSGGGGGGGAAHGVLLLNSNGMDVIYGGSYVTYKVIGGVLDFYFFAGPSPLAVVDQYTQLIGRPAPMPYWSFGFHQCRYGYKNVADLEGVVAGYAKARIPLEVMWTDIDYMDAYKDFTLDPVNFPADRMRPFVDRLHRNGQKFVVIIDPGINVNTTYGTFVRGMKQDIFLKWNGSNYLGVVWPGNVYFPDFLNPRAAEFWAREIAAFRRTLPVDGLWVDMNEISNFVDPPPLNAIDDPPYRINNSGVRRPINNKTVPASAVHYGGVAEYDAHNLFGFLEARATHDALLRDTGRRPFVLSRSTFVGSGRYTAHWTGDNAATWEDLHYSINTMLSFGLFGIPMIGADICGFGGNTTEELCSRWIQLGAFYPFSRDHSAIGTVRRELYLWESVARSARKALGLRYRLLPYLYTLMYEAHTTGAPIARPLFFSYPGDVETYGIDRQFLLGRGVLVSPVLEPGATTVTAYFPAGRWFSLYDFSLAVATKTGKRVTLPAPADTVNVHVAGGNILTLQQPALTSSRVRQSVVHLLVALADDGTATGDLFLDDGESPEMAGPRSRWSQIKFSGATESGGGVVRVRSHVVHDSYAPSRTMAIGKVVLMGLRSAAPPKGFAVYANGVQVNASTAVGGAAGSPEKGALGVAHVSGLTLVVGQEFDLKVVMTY
Source text: as §1

`OCCN1C[C@H](O)[C@@H](O)[C@H](O)[C@H]1CO` [Miglitol, miglitol, reference compound] was tested, and the IC50 (β-Glucosidase (almond)) was > 1000 µM, the IC50 (β-Glucronidase (E.coli)) was > 1000 µM and the IC50 (Rat intestinal maltase) was > 1000 µM. For the same molecule, the IC50 [1] was > 1000 µM, the IC50 (β-Mannosidase (snail)) was > 1000 µM and the IC50 [2] was > 1000 µM. The IC50 (α-Glucosidase (yeast)) was 70 µM, the IC50 [3] was > 1000 µM and the IC50 (Amyloglucosidase) was > 1000 µM. For the same molecule, the IC50 (α-Glucosidase (rice)) was 0.17 µM.
